The values below come from the supplement of paper PMC10290057.

Experiment [1] relates to HCT116. Briefly: AC50 cell viability (CellTiter-Glo); higher = less potent. The note with it: 48 h. On the technique in general: ATP-based viability assays read luminescence as a measure of living cells.
For experiment [2], the system named is HCT116. Briefly: efficacy (fitted maximal change in viability relative to DMSO control); higher = less cytotoxic (negative = loss of viability). To be noted: 48 h.

SMILES strings stand for the structures.
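Throughout, for AC50 cell viability (CellTiter-Glo): HCT116 colorectal carcinoma cells screened at five concentrations per compound, luminescent viability scaled between DMSO wells and empty wells on each plate, curves fitted per compound.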
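Throughout, for efficacy (fitted maximal change in viability relative to DMSO control): Luminescence-based viability readout, five doses per compound, normalized against on-plate DMSO and empty-well controls, followed by dose-response curve fitting for every drug.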

Turning to `CCN1CCN(Cc2ccc(-c3cc4c(N[C@H](C)c5ccccc5)ncnc4[nH]3)cc2)CC1` [AEE-788], in the experiment with HCT116 [1], the AC50 cell viability was 16.6 µM. Moreover, the efficacy with HCT116 [2] was -97.5%.
`CCOC(CN1C(=O)[C@](CC(=O)Nc2ccc(C)cc2)(NC(=O)Nc2ccc(C)cc2)c2ccccc21)OCC` [AG-041R] yielded an AC50 cell viability with HCT116 [1] of 23.5 µM. In the experiment on HCT116 [2], the efficacy was -78.5%.
`CC(C)(C)c1cc(C=C(C#N)C#N)cc(Br)c1O` [AG-1024]: in the experiment with HCT116 [1], the AC50 cell viability worked out at 26.3 µM. The efficacy with HCT116 [2] was -86.1%.
Turning to `COc1cc2ncnc(Nc3cccc(Cl)c3)c2cc1OC` [AG-1478], in the experiment on HCT116 [1], the AC50 cell viability was found to be 23.5 µM. The efficacy in the experiment with HCT116 [2] is -91.8%.
For the compound `O=C(Nc1cccc(C(F)(F)F)c1)Nc1cc([S+](=O)([O-])NC2CC2)ccc1-c1ccsc1` [AGI-6780], the AC50 cell viability in the experiment with HCT116 [1] is 26.3 µM. In the experiment with HCT116 [2], the efficacy was -99.4%.
In the same order, the values of `O=C(O)c1ccc2cc(-c3ccc(O)c(C45CC6CC(CC(C6)C4)C5)c3)ccc2c1` [AHPN] are 2.95 µM and -88.2%.
For the compound `c1ccc(-c2oc3ncnc(NC[C@@H]4CCCO4)c3c2-c2ccccc2)cc1` [AIM-100], the AC50 cell viability in the experiment with HCT116 [1] was 9.34 µM. Besides, the efficacy in the experiment with HCT116 [2] is -69.3%.
In turn, `O=c1[nH]c2ccccc2n1C1CCN(Cc2ccc(-c3nc4cc5nc[nH]c5cc4nc3-c3ccccc3)cc2)CC1` [AKT Inhibitor VIII] yielded an AC50 cell viability in the experiment with HCT116 [1] of 16.6 µM. The efficacy in the experiment with HCT116 [2] is -84.5%.
The corresponding values for `CCN1CCN(Cc2ccc(NC(=O)c3ccc(C)c(NC(=O)c4cncc(-c5cccs5)c4)c3)cc2C(F)(F)F)CC1` [ALW-II-41-27] are 1.86 µM and -111%.
The corresponding values for `CN(CCO)C1CCN(c2ccc(Nc3ncc4c5ccnc(F)c5n(C5CCCC5)c4n3)nc2)CC1` [AM-5992] are 1.02 µM and -50%.
The corresponding values for `COC1=CC=C2C(=CC=NC2=C1)OC3=CC=C(NC(=O)\C4=C(C)\N(CC(C)(C)O)N(C4=O)C5=CC=CC=C5)C=C3F` [AMG-1] are 11.8 µM and -67.9%.
`CC\1=C(C(=O)N(\C=C1)C2=CC=C(C=C2)C3=NC=CO3)/C4=CC5=CN=C(N)N=C5C=C4` [AMG-25]: the AC50 cell viability in the experiment on HCT116 [1] stood at 1.66 µM. Also, the efficacy in the experiment on HCT116 [2] is -47.6%.
Take `Cc1ccc(C(=O)Nc2cccc(C(F)(F)F)c2)cc1-c1ccc2nc(NCCN3CCOCC3)ncc2c1` [AMG-47a]: the AC50 cell viability with HCT116 [1] stood at 2.35 µM. For the same compound, the efficacy in the experiment with HCT116 [2] is -101%.
Consider `COC1=C(OCCCN2CCOCC2)C=C3N=CC=C(OC4=CC=C(C=C4F)\C5=C\N=C(\NC6=CC=C(F)C=C6)N(C)C5=O)C3=C1` [AMG-51], for which, in the experiment with HCT116 [1], the AC50 cell viability stood at 16.6 µM. The efficacy in the experiment with HCT116 [2] was -136%.
`CC(C)[C@@H](C[S+](=O)([O-])C(C)C)N1C(=O)[C@@](C)(CC(=O)O)C[C@H](c2cccc(Cl)c2)[C@H]1c1ccc(Cl)cc1` [AMG-232] came in with an AC50 cell viability in the experiment with HCT116 [1] of 1.48 µM. Moreover, the efficacy in the experiment with HCT116 [2] was -84.7%.
`COC1=CC2=NC=CC(=C2C=C1)OC3=CN=C(NC(=O)C/4=C(C)/N(CC(C)(C)O)N(C4=O)C5=CC=CC=C5)C=C3` [AMG-458]: the AC50 cell viability in the experiment with HCT116 [1] was 16.6 µM. In addition, in the experiment on HCT116 [2], the efficacy was -71.6%.
The compound `COc1ncc(Nc2ncc([C@H](C)N3CCN([S+](C)(=O)[O-])CC3)cc2-c2nc(C)nc(N)n2)cc1F` [AMG-511] had an AC50 cell viability in the experiment on HCT116 [1] of 5.9 µM. Also, the efficacy in the experiment with HCT116 [2] was -80.5%.
In the experiment on HCT116 [1], `CN\1C(=O)/C(=C(\N=C1NC[C@@H](N)CC2=CC=CC=C2)C3=CC=NC=C3)C4=CC5=C(C=CC=C5)C=C4` [AMG-548] came in with an AC50 cell viability of 20.9 µM. Further, the efficacy in the experiment with HCT116 [2] is -101%.
`CC#C[C@@H](CC(=O)O)c1ccc(OCc2cccc(-c3ccc(C(F)(F)F)cc3)c2)cc1` [AMG-837]: the AC50 cell viability in the experiment with HCT116 [1] is 20.9 µM. The efficacy in the experiment with HCT116 [2] is -40.8%.
As for `Cc1csc(-c2nnc(Nc3ccc(Oc4ncccc4-c4ccnc(N)n4)cc3)c3ccccc23)c1` [AMG-900], the AC50 cell viability with HCT116 [1] was 16.6 µM. Also, the efficacy with HCT116 [2] was -52.9%.
Turning to `CNc1nccc(-c2cccnc2Oc2cc(C(=O)Nc3cccc(C(F)(F)F)c3)ccc2C)n1` [AMG-Tie2-1], the AC50 cell viability with HCT116 [1] amounted to 1.66 µM. In the experiment with HCT116 [2], the efficacy is -78.8%.
For `Cc1[nH]c2ccc(F)cc2c1-c1nc2c3cccnc3c3ncccc3c2[nH]1` [APTO-253], the AC50 cell viability in the experiment with HCT116 [1] was found to be 0.679 µM. Moreover, in the experiment with HCT116 [2], the efficacy is -77.4%.
Regarding `c1cc(Nc2cc(C3CC3)n[nH]2)nc(Nc2ccc3nc[nH]c3c2)n1` [APY29], the AC50 cell viability in the experiment on HCT116 [1] is 0.235 µM. In the experiment on HCT116 [2], the efficacy was -66.4%.
Regarding `NCCCN([C@H](CC#C)C/1=N/C2=C(C=CC(=C2)Cl)C(=O)N1NC3=CC=CC=C3)C(=O)C4=CC=CC(=C4F)Cl` [ARQ-621], the AC50 cell viability with HCT116 [1] was 0.468 µM. For the same compound, the efficacy in the experiment on HCT116 [2] is -102%.
